Measured values as given in patent publication US20220358646A1, “CELL ACTIVITY MACHINE LEARNING” (Q-STATE BIOSCIENCES, INC., priority 2021, published 2022).

Key:
[1] = test system: iPSC-derived excitatory cortical neurons (NGN2) with loss of function knockout; test: Optopatch functional phenotype reversal in knockout (KO) disease-model neurons versus wildtype control; assay type: cell-based, human; conditions: for cell behavior projected onto phenotype/side effect space: KO cells, 8 concentrations from 0.28 to 600 μM, two replicates; for reversal of disease-model functional phenotype (radar plot of action potential features): KO disease-model cells stimulated in presence of compound, normalized to control cells
Description: In this example, iPSC-derived excitatory cortical neurons (NGN2) were grown for 30 days in a culture. The neurons expressed Optopatch proteins as described in Example 1. Two sets of neurons were grown. The first was a wildtype control line.
The cells were stimulated using blue light as described in Example 1 and their action potentials recorded as voltage traces. Recordings were made of the control cells and disease-model cells when stimulated in the absence of any test compound. Recordings were also made of the disease-model cells when stimulated in the presence of the promiscuous potassium channel blocker 4-AP and the promiscuous sodium channel blocker lamotrigine.
FIG. 23 provides radar plots representing functional phenotypes generated by a machine learning system using action potential features extracted from the recorded action potentials when the cells were stimulated by blue light. The values for the features are normalized to the control cell recordings. […] The differences in the recorded traces, select features of which are provided on the radar plots, show the functional phenotype of the disease-model.
FIG. 24 is a diagram illustrating phenotype reversal and “side effects” described by mapping extracted action potential features on the ˜300-dimensional space of recorded parameters, only two of which are shown. Extracted features for the control cell (WT) wells (green) are clustered as are those for the KO cells (red). The vector between these populations represents the phenotype (red). Drug effects (blue) are deconstructed into components along (phenotype reversal) and orthogonal to (side effects) the phenotype vector. An ideal drug would undo the effects of the mutation and move the well from the KO cluster to the control cell cluster.
FIG. 25 is a plot showing many wells projected onto the phenotype/side effect space. WT and KO wells are well separated along the phenotype direction. Application of the two compounds (8 concentrations from 0.28 to 600 μM) from FIG. 25 have increasing effects on KO cell behavior as the concentration increases. […] The connected drug points are in order of increasing concentration, and the two lines are experimental replicates on two consecutive weeks of experiment.

[2] = test system: E18 rat hippocampal neurons; test: Optopatch functional phenotypes of compounds in cultured neurons; assay type: cell-based; conditions: normalized to control vehicle, 14 days culture
Description: E18 rat hippocampal neurons were cultured for 14 days and caused to express Optopatch proteins as described in Example 1. The cells were stimulated in the presence of XE-991 (a Kv7.x blocker), ML-213 (a Kv7.x opener), a-Dendrotoxin (a Kv1.x blocker), OXO-M (a muscarinic agonist), 4AP (a promiscuous Kv blocker), Isradipine (a Cav1.x blocker), or a control vehicle. FIG. 26 provides radar plots representing generated functional phenotypes indicative of the drug-induced changes in neuronal spiking behavior along many dimensions. The action potential feature values were normalized to those for the cells simulated in the presence of the control vehicle. As shown in the radar plots, each compound provided a discernable and unique functional phenotype. […] FIG. 27 provides concentration response curves for the cells in the presence of varied concentrations of the compounds. Each symbol represents >100 cells in one well and all measurements were obtained in a single day. Thus, the present systems and methods can not only elucidate therapeutic responses of various compounds, but also show concentration-dependent responses. Moreover, as the measurements were taken in a single day, the presently disclosed systems and methods enable fast, high-throughput drug screening.

[3] = test system: hiPSC-derived motor neurons; test: Optopatch optical stimulation and voltage recording of hiPSC-derived motor neurons before and after compound addition; assay type: cell-based, human
Description: Human induced pluripotent stem cells (hiPSC) were differentiated into hiPSC-derived motor neurons. The cells expressed an optogenetic proteins from the Optopatch toolkit (optical stimulation plus optical voltage reporting, e.g., CheRiff & QuasAr), which allows simultaneous optical stimulation and recording of neuronal action potentials.
The channelrhodopsin CheRiff enables action potential stimulation with blue light and the voltage-sensitive fluorescent protein QuasAr enables high-speed electrical recordings with red light. A microscope, as disclosed herein, obtained simultaneous voltage recordings from >100 individual neurons over a large (0.5×4 mm) field of view (FOV) with 1 ms temporal resolution and high signal-to-noise ratio (SNR). A digital micromirror device (DMD) in the microscope projected a fully reconfigurable optical pattern to sequentially stimulate cells while recording from many post-synaptic partners. […]
In every trace the spikes were detected and the key spike shape and timing parameters were computed. […]
Pixels in the recording that captured fluorescence from the reporters of membrane potential in each neuron co-varied in time following that cell's unique firing pattern. […] Each FOV was recorded twice, before and after addition of potassium channel opener ML-213. […]

[4] = test system: E18 rat hippocampal neurons; test: Optopatch 96-well plate firing assay, alternating columns compound/vehicle; assay type: cell-based; conditions: ML-213 at 1 μM versus vehicle wells
Description: E18 rat hippocampal neurons were cultured for 14 days and caused to express Optopatch proteins as described in Example 1. The cells were placed in wells of a 96-well plate. ML-213 at 1 μM was added to alternating columns of the plate and a control vehicle added to the remaining columns. The cells in all wells were stimulated and their action potentials recorded using a microscope as described in Example 1.
FIG. 30 provides the average firing rate during the blue light stimulus ramp for each well.
FIG. 32 provides a plot of the average number of spikes recorded for individual cells in each well during the blue light stimulus ramp.

Structure (SMILES) | cell behavior projected onto phenotype/side effect space [1] | reversal of disease-model functional phenotype (radar plot of action potential features) [1] | drug-induced changes in neuronal spiking behavior (functional phenotype) [2] | neuronal excitability ([3]; 1 μM ML-213, same neurons before and after addition, blue light stimulus) | resting potential and action potential firing ([3]; hiPSC-derived motor neurons) | average firing rate during the blue light stimulus ramp [4]
Nc1nnc(-c2cccc(Cl)c2Cl)c(N)n1 [lamotrigine] | moves behavior away from both WT and KO | perturbed behavior but did not reverse the phenotype | – | – | – | –
O=C1c2ccccc2C(Cc2ccncc2)(Cc2ccncc2)c2ccccc21 [XE-991] | – | – | drove cellular response, as expected | – | – | –
Nc1ccncc1 [4-AP] | moves cell behavior toward and beyond WT behavior | substantially reversed the phenotype | – | – | – | –
Cc1cc(C)c(NC(=O)C2CC3CCC2C3)c(C)c1 (stereo not drawn) [ML-213] | – | – | drove cellular response, as expected | clear reduction in neuronal excitability | lowers resting potential and suppresses action potential firing | dramatically reduces firing rate
